Read-outs that look alike come from different tables or passages of the source.
Biological target: T1, BTK enzyme (recombinant full-length BTK, hBTK) (Homo sapiens, UniProt Q06187)
T1 construct: recombinant protein from baculovirus-transfected Sf9 cells: full-length BTK, 6HIS-tag cleaved; 6HIS (cleaved yes); made in house; host or cells: baculovirus-transfected Sf9 cells
Assay: BTK enzyme activity assay, LANCE TR-FRET
Format: biochemical
Settings: 50 pM hBTK, 2 μM biotin-A5-peptide, 25 μM ATP, 60 min compound & enzyme incubation

[1] = read-out: IC50 BTK activity value

T1 sequence (Q06187 whole entry): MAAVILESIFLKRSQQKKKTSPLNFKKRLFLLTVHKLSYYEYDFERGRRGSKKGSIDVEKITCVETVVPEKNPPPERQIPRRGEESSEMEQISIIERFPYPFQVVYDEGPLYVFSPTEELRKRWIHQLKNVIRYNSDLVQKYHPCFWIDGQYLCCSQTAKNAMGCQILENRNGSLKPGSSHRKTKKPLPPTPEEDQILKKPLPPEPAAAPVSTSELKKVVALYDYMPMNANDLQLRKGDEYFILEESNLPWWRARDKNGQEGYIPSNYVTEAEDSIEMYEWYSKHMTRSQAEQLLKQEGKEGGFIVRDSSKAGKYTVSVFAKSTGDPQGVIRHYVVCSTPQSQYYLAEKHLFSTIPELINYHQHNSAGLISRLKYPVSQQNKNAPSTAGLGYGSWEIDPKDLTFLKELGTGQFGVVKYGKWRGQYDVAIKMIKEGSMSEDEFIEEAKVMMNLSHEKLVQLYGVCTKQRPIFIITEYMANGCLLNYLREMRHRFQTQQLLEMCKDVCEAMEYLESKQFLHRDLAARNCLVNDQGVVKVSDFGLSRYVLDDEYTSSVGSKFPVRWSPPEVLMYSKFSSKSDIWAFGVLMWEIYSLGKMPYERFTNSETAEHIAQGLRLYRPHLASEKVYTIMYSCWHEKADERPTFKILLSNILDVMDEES

Compound	IC50 [1] [pM]	IC50 (IC50 BTK activity value) [pM]
Nc1nccn2c([C@H]3CC[C@@H]4COC(=O)N4C3)nc(-c3ccc(C(=O)Nc4cc(C(F)(F)F)ccn4)cc3F)c12 (stereo in doubt) [Example 13, 4-(8-amino-3-((6S,8aR)-3-oxohexahydro-1H-oxazolo[3,4-a]pyridin-6-yl)imidazo[1,5-a]pyrazin-1-yl)-3-fluoro-N-(4-(trifluoromethyl)pyridin-2-yl)benzamide]	1300	–
Nc1nccn2c([C@H]3CC[C@H]4COC(=O)N4C3)nc(-c3ccc(C(=O)Nc4cc(C(F)(F)F)ccn4)cc3)c12 [Example 1, 4-(8-amino-3-((6S,8aS)-3-oxohexahydro-1H-oxazolo[3,4-a]pyridin-6-yl)imidazo[1,5-a]pyrazin-1-yl)-N-(4-(trifluoromethyl)pyridin-2-yl)benzamide]	–	5500
Nc1nccn2c([C@@H]3CC[C@@H]4COC(=O)N4C3)nc(-c3ccc(C(=O)Nc4cc(C(F)(F)F)ccn4)cc3)c12 [Example 2, 4-(8-amino-3-((6R,8aR)-3-oxohexahydro-1H-oxazolo[3,4-a]pyridin-6-yl)imidazo[1,5-a]pyrazin-1-yl)-N-(4-(trifluoromethyl)pyridin-2-yl)benzamide]	–	15600
Nc1nccn2c([C@@H]3CC[C@H]4CCC(=O)N4C3)nc(-c3ccc(C(=O)Nc4cc(OC5CC5)ccn4)cc3)c12 [Example 5, 4-(8-amino-3-((6R,8aS)-3-oxooctahydroindolizin-6-yl)imidazo[1,5-a]pyrazin-1-yl)-N-(4-cyclopropoxypyridin-2-yl)benzamide]	240	–
Nc1nccn2c([C@@H]3CC[C@H]4COC(=O)N4C3)nc(-c3ccc(C(=O)Nc4cc(C(F)(F)F)ccn4)cc3F)c12 [Example 12, 4-(8-amino-3-((6R,8aS)-3-oxohexahydro-1H-oxazolo[3,4-a]pyridin-6-yl)imidazo[1,5-a]pyrazin-1-yl)-3-fluoro-N-(4-(trifluoromethyl)pyridin-2-yl)benzamide]	83	–
Nc1nccn2c([C@@H]3CC[C@H]4CCC(=O)N4C3)nc(-c3ccc(C(=O)Nc4cc(C(F)F)ccn4)cc3F)c12 [Example 14, 4-{8-amino-3-[(6R,8aS)-3-oxooctahydroindolizin-6-yl]imidazo[1,5-a]pyrazin-1-yl}-N-[4-(difluoromethyl)pyridin-2-yl]-3-fluorobenzamide]	120	–
Nc1nccn2c([C@@H]3CC[C@H]4CCC(=O)N4C3)nc(-c3ccc(C(=O)Nc4cc(C(F)F)ccn4)cc3)c12 [Example 17]	310	–
Cc1cc(-c2nc([C@@H]3CC[C@H]4CCC(=O)N4C3)n3ccnc(N)c23)ccc1C(=O)Nc1cc(C(F)(F)F)ccn1 [Example 22, 4-{8-amino-3-[(6R,8aS)-3-oxooctahydroindolizin-6-yl]imidazo[1,5-a]pyrazin-1-yl}-2-methyl-N-[4-(trifluoromethyl)pyridin-2-yl]benzamide]	410	–
CC(F)(F)c1ccnc(NC(=O)c2ccc(-c3nc([C@@H]4CC[C@H]5CCC(=O)N5C4)n4ccnc(N)c34)cc2F)c1 [Example 25, 4-{8-amino-3-[(6R,8aS)-3-oxooctahydroindolizin-6-yl]imidazo[1,5-a]pyrazin-1-yl}-N-[4-(1,1-difluoroethyl)pyridin-2-yl]-2-fluorobenzamide]	540	–
Nc1nccn2c([C@@H]3CC[C@H]4CCC(=O)N4C3)nc(-c3ccc(C(=O)Nc4cc(C(F)F)ccn4)c(F)c3)c12 [Example 26, 4-{8-amino-3-[(6R,8aS)-3-oxooctahydroindolizin-6-yl]imidazo[1,5-a]pyrazin-1-yl}-N-[4-(difluoromethyl)pyridin-2-yl]-2-fluorobenzamide]	1500	–
Nc1nccn2c([C@@H]3CC[C@H]4CCC(=O)N4C3)nc(-c3ccc(C(=O)Nc4cc(C5CC5)ccn4)c(F)c3)c12 [Example 27, 4-{8-amino-3-[(6R,8aS)-3-oxooctahydroindolizin-6-yl]imidazo[1,5-a]pyrazin-1-yl}-N-(4-cyclopropylpyridin-2-yl)-2-fluorobenzamide]	1100	–
C[C@H]1OC(=O)N2C[C@H](c3nc(-c4ccc(C(=O)Nc5cc(C6CC6)ccn5)cc4F)c4c(N)nccn34)CC[C@@H]12 [Example 32, 4-{8-amino-3-[(1R,6R,8aS)-1-methyl-3-oxohexahydro[1,3]oxazolo[3,4-a]pyridin-6-yl]imidazo[1,5-a]pyrazin-1-yl}-N-(4-cyclopropylpyridin-2-yl)-3-fluorobenzamide]	210	–
COc1cc(C(=O)Nc2cc(C#N)ccn2)ccc1-c1nc([C@@H]2CC[C@H]3CCC(=O)N3C2)n2ccnc(N)c12 [Example 35, 4-{8-amino-3-[(6R,8aS)-3-oxooctahydroindolizin-6-yl]imidazo[1,5-a]pyrazin-1-yl}-N-(4-cyanopyridin-2-yl)-3-methoxybenzamide]	1100	–
C[C@@H]1OC(=O)N2C[C@H](c3nc(-c4ccc(C(=O)Nc5cc(C6CC6)ccn5)cc4F)c4c(N)nccn34)CC[C@@H]12 [Example 37, 4-{8-amino-3-[(1S,6R,8aS)-1-methyl-3-oxohexahydro[1,3]oxazolo[3,4-a]pyridin-6-yl]imidazo[1,5-a]pyrazin-1-yl}-N-(4-cyclopropylpyridin-2-yl)-3-fluorobenzamide]	390	–
Nc1nccn2c([C@@H]3CC[C@H]4CCC(=O)N4C3)nc(-c3ccc(C(=O)Nc4cc(OC5CC5)ccn4)cc3F)c12 [Example 43, 4-{8-amino-3-[(6R,8aS)-3-oxooctahydroindolizin-6-yl]imidazo[1,5-a]pyrazin-1-yl}-N-[4-(cyclopropyloxy)pyridin-2-yl]-3-fluorobenzamide]	130	–
C[C@@H]1CC(=O)N2C[C@H](c3nc(-c4ccc(C(=O)Nc5cc(C(F)(F)F)ccn5)cc4)c4c(N)nccn34)CC[C@@H]12 [Example 62, 4-{8-amino-3-[(1R,6R,8aS)-1-methyl-3-oxooctahydroindolizin-6-yl]imidazo[1,5-a]pyrazin-1-yl}-N-[4-(trifluoromethyl)pyridin-2-yl]benzamide]	6700	–
CC(C)(C(=O)O)N1CC(=O)N2C[C@H](c3nc(-c4ccc(C(=O)Nc5cc(C(F)(F)F)ccn5)cc4)c4c(N)nccn34)CC[C@H]2C1 [Example 86, 2-((7R,9aS)-7-(8-amino-1-(4-((4-(trifluoromethyl)pyridin-2-yl)carbamoyl)phenyl)imidazo[1,5-a]pyrazin-3-yl)-4-oxohexahydro-1H-pyrido[1,2-a]pyrazin-2(6H)-yl)-2-methylpropanoic acid]	450	–
CC1(C)C[C@@H]2CC[C@@H](c3nc(-c4ccc(C(=O)Nc5cc(C(F)(F)F)ccn5)cc4)c4c(N)nccn34)CN2C1=O [Example 95, 4-{8-amino-3-[(6R,8aS)-2,2-dimethyl-3-oxooctahydroindolizin-6-yl]imidazo[1,5-a]pyrazin-1-yl}-N-[4-(trifluoromethyl)pyridin-2-yl]benzamide]	11400	–

More lines, main results first:

IC50 [1] [pM]	Compound	IC50 (IC50 BTK activity value) [pM]
60600	Nc1nccn2c([C@@H]3CC[C@H]4CCC(=O)N4C3)nc(-c3ccc(C(=O)Nc4cc(C5CCC5)ccn4)cc3)c12 [Example 7, 4-(8-amino-3-((6R,8aS)-3-oxooctahydroindolizin-6-yl)imidazo[1,5-a]pyrazin-1-yl)-N-(4-cyclobutylpyridin-2-yl)benzamide]	–
640	Cc1cc(-c2nc([C@@H]3CC[C@H]4CCC(=O)N4C3)n3ccnc(N)c23)ccc1C(=O)Nc1cc(C2CC2)ccn1 [Example 28, 4-{8-amino-3-[(6R,8aS)-3-oxooctahydroindolizin-6-yl]imidazo[1,5-a]pyrazin-1-yl}-N-(4-cyclopropylpyridin-2-yl)-2-methylbenzamide]	–
1900	Nc1nccn2c([C@@H]3CC[C@H]4CCC(=O)N4C3)nc(-c3ccc(C(=O)Nc4cc(C5(F)COC5)ccn4)cc3)c12 [Example 29, 4-{8-amino-3-[(6R,8aS)-3-oxooctahydroindolizin-6-yl]imidazo[1,5-a]pyrazin-1-yl}-N-[4-(3-fluorooxetan-3-yl)pyridin-2-yl]benzamide]	–
850	CC(C)(F)c1ccnc(NC(=O)c2ccc(-c3nc([C@@H]4CC[C@H]5CCC(=O)N5C4)n4ccnc(N)c34)cc2)c1 [Example 30, 4-{8-amino-3-[(6R,8aS)-3-oxooctahydroindolizin-6-yl]imidazo[1,5-a]pyrazin-1-yl}-N-[4-(1-fluoro-1-methylethyl)pyridin-2-yl]benzamide]	–
2500	N#Cc1ccnc(NC(=O)c2ccc(-c3nc([C@@H]4CC[C@H]5CCC(=O)N5C4)n4ccnc(N)c34)cc2F)c1 [Example 34, 4-{8-amino-3-[(6R,8aS)-3-oxooctahydroindolizin-6-yl]imidazo[1,5-a]pyrazin-1-yl}-N-(4-cyanopyridin-2-yl)-2-fluorobenzamide]	–
980	Cc1cc(-c2nc([C@@H]3CC[C@H]4CCC(=O)N4C3)n3ccnc(N)c23)ccc1C(=O)Nc1cc(C#N)ccn1 [Example 36, 4-{8-amino-3-[(6R,8aS)-3-oxooctahydroindolizin-6-yl]imidazo[1,5-a]pyrazin-1-yl}-N-(4-cyanopyridin-2-yl)-2-methylbenzamide]	–
9600	Nc1nccn2c([C@@H]3CC[C@@H]4CNCC(=O)N4C3)nc(-c3ccc(C(=O)Nc4cc(C(F)(F)F)ccn4)cc3)c12 [Example 54, 4-{8-amino-3-[(7R,9aR)-4-oxooctahydro-2H-pyrido[1,2-a]pyrazin-7-yl]imidazo[1,5-a]pyrazin-1-yl}-N-[4-(trifluoromethyl)pyridin-2-yl]benzamide]	–
300	Nc1nccn2c([C@@H]3CC[C@H]4COCCN4C3)nc(-c3ccc(C(=O)Nc4cc(C(F)(F)F)ccn4)cc3)c12 [Example 55, 4-{8-amino-3-[(7R,9aS)-octahydropyrido[2,1-c][1,4]oxazin-7-yl]imidazo[1,5-a]pyrazin-1-yl}-N-[4-(trifluoromethyl)pyridin-2-yl]benzamide]	–
7600	Nc1nccn2c([C@@H]3CC[C@@H]4C[C@H](O)C(=O)N4C3)nc(-c3ccc(C(=O)Nc4cc(C(F)(F)F)ccn4)cc3)c12 [Example 75, 4-{8-amino-3-[(2S,6R,8aR)-2-hydroxy-3-oxooctahydroindolizin-6-yl]imidazo[1,5-a]pyrazin-1-yl}-N-[4-(trifluoromethyl)pyridin-2-yl]benzamide]	–

From patent US20140206681A1, “BTK INHIBITORS” (priority 2013, published 2014)
